In ChEMBL document CHEMBL5370614, “Antimalarial Lanostane Dimers from Artificially Cultivated Fruiting Bodies of Ganoderma weberianum” (J Nat Prod, 2023):

Assays:
Plasmodium falciparum = assay: Antimalarial activity against multi-drug resistant Plasmodium falciparum K1 infected in human erythrocytes assessed as parasite growth inhibition incubated for 24 hrs by [G-3H]hypoxanthine uptake assay; format: functional, organism-based; conditions: K1, Erythrocyte
[1] = Cytotoxicity against African green monkey Vero cells assessed as cell growth inhibition by GFP fluorescence based assay; format: toxicity; conditions: African green monkey (Chlorocebus sabaeus)

Row | Structure (SMILES) | IC50 (Plasmodium falciparum) [µM] | IC50 [1] [µM]
1 | C[C@H](CC(=O)C[C@H](C)C(=O)O[C@@H](CC[C@@H](C)[C@H]1C[C@H](O)[C@@]2(C)C3=C(CC[C@]12C)[C@@]1(C)CCC(=O)C(C)(C)[C@@H]1CC3)[C@](C)(O)CO)[C@H]1C[C@@H](O)[C@@]2(C)C3=C(C(=O)C[C@]12C)[C@@]1(C)CCC(=O)C(C)(C)[C@@H]1CC3=O | 0.057 | 8.1
2 | C[C@H](CC[C@@H](O)[C@@](C)(O)COC(=O)[C@@H](C)CC(=O)C[C@@H](C)[C@H]1C[C@@H](O)[C@@]2(C)C3=C(C(=O)C[C@]12C)[C@@]1(C)CCC(=O)C(C)(C)[C@@H]1CC3=O)[C@H]1CC[C@@]2(C)C3=CC[C@H]4C(C)(C)C(=O)CC[C@]4(C)C3=CC[C@]12C | 1.09 | > 52
3 | C[C@H](CC(=O)C[C@@H](C)[C@H]1C[C@@H](O)[C@@]2(C)C3=C(C(=O)C[C@]12C)[C@@]1(C)CCC(=O)C(C)(C)[C@@H]1CC3=O)C(=O)O[C@H](CC[C@@H](C)[C@H]1CC[C@@]2(C)C3=CC[C@H]4C(C)(C)C(=O)CC[C@]4(C)C3=CC[C@]12C)[C@@](C)(O)CO | 2.33 | 9
4 | C[C@H](CC(=O)C[C@H](C)C(=O)O)[C@H]1C[C@H](O)[C@@]2(C)C3=C(C(=O)C[C@]12C)[C@@]1(C)CC[C@@H](O)C(C)(C)[C@@H]1CC3 | > 20 | > 100
5 | Cc1c2ccncc2c(C)c2c1[nH]c1ccccc12 [ELLIPTECINE] | – | 2.9
6 | C[C@H]1[C@@H](O)O[C@@H]2O[C@@]3(C)CC[C@H]4[C@H](C)CC[C@@H]1[C@@]24OO3 [ARTENIMOL] | 0.002 | –
7 | C[C@H](CC(=O)C[C@H](C)C(=O)OC[C@@](C)(O)[C@@H](O)CC[C@@H](C)[C@H]1C[C@H](O)[C@@]2(C)C3=C(CC[C@]12C)[C@@]1(C)CCC(=O)C(C)(C)[C@@H]1CC3)[C@H]1C[C@@H](O)[C@@]2(C)C3=C(C(=O)C[C@]12C)[C@@]1(C)CCC(=O)C(C)(C)[C@@H]1CC3=O | 0.035 | 19
8 | C[C@H](CC[C@H](O)[C@](C)(O)COC(=O)[C@@H](C)CC(=O)C[C@@H](C)[C@H]1C[C@@H](O)[C@@]2(C)C3=C(C(=O)C[C@]12C)[C@@]1(C)CC[C@@H](O)C(C)(C)[C@@H]1CC3=O)[C@H]1CC[C@@]2(C)C3=CC[C@H]4C(C)(C)C(=O)CC[C@]4(C)C3=CC[C@]12C | 3.3 | 24
9 | C[C@H](CC[C@@H](O)[C@@](C)(O)CO)[C@H]1CC[C@@]2(C)C3=CC[C@H]4C(C)(C)C(=O)CC[C@]4(C)C3=CC[C@]12C | > 21 | > 106
10 | C[C@H](CC(=O)C[C@H](C)C(=O)O)[C@H]1C[C@H](O)[C@@]2(C)C3=C(C(=O)C[C@]12C)[C@@]1(C)CC[C@@H](O)C(C)(C)[C@@H]1CC3=O | > 19 | > 97
11 | C[C@H](CC[C@H](OC(=O)[C@@H](C)CC(=O)C[C@@H](C)[C@H]1C[C@@H](O)[C@@]2(C)C3=C(C(=O)C[C@]12C)[C@@]1(C)CC[C@@H](O)C(C)(C)[C@@H]1CC3=O)[C@](C)(O)CO)[C@H]1CC[C@@]2(C)C3=C(CC[C@]12C)[C@@]1(C)CCC(=O)C(C)(C)[C@@H]1C[C@H]3O | 0.39 | 2.3
12 | C[C@H](CC[C@H](O)[C@](C)(O)CO)[C@H]1CC[C@@]2(C)C3=CC[C@H]4C(C)(C)C(=O)CC[C@]4(C)C3=CC[C@]12C [GANODERMANONTRIOL] | > 21 | > 106
13 | C[C@H](CC(=O)C[C@H](C)C(=O)O)[C@H]1C[C@H](O)[C@@]2(C)C3=C(C(=O)C[C@]12C)[C@@]1(C)CCC(=O)C(C)(C)[C@@H]1C[C@H]3O | 19 | > 97
14 | C.C[C@H](CC[C@@H](OC(=O)[C@@H](C)CC(=O)C[C@@H](C)[C@H]1C[C@@H](O)[C@@]2(C)C3=C(C(=O)C[C@]12C)[C@@]1(C)CC[C@@H](O)C(C)(C)[C@@H]1CC3=O)[C@@](C)(O)CO)[C@H]1CC[C@@]2(C)C3=CC[C@H]4C(C)(C)C(=O)CC[C@]4(C)C3=CC[C@]12C | 1.3 | 9.2
15 | C[C@H](CC(=O)C[C@H](C)C(=O)O)[C@H]1C[C@H](O)[C@@]2(C)C3=C(C(=O)C[C@]12C)[C@@]1(C)CCC(=O)C(C)(C)[C@@H]1CC3=O | > 19 | > 97
16 | C[C@H](CC(=O)C[C@H](C)C(=O)O[C@@H](CC[C@@H](C)[C@H]1C[C@H](O)[C@@]2(C)C3=C(CC[C@]12C)[C@@]1(C)CCC(=O)C(C)(C)[C@@H]1CC3)[C@](C)(O)CO)[C@H]1C[C@@H](O)[C@@]2(C)C3=C(C(=O)C[C@]12C)[C@@]1(C)CC[C@@H](O)C(C)(C)[C@@H]1CC3=O | 0.23 | 13
17 | C[C@H](CC(=O)C[C@H](C)C(=O)O)[C@H]1C[C@H](O)[C@@]2(C)C3=C(C(=O)C[C@]12C)[C@@]1(C)CCC(=O)C(C)(C)[C@@H]1CC3 | > 20 | > 100
18 | C[C@H](CC[C@@H](OC(=O)[C@@H](C)CC(=O)C[C@@H](C)[C@H]1C[C@@H](O)[C@@]2(C)C3=C(C(=O)C[C@]12C)[C@@]1(C)CC[C@@H](O)C(C)(C)[C@@H]1CC3=O)[C@@](C)(O)CO)[C@H]1CC[C@@]2(C)C3=C(CC[C@]12C)[C@@]1(C)CCC(=O)C(C)(C)[C@@H]1C[C@H]3O | 0.67 | 17
19 | C[C@H](CC[C@H](O)[C@](C)(O)COC(=O)[C@@H](C)CC(=O)C[C@@H](C)[C@H]1C[C@@H](O)[C@@]2(C)C3=C(C(=O)C[C@]12C)[C@@]1(C)CCC(=O)C(C)(C)[C@@H]1CC3=O)[C@H]1CC[C@@]2(C)C3=CC[C@H]4C(C)(C)C(=O)CC[C@]4(C)C3=CC[C@]12C | 0.77 | > 52
